From US20260374739A1, “SMALL MOLECULAR WEIGHT CHEMICAL COMPOUND TO ANTAGONIZE EPH-EPHRIN TETRAMERIZATION AND INHIBIT BIDIRECTIONAL SIGNALING” (THE BOARD OF REGENTS OF THE UNIVERSITY OF TEXAS SYSTEM, priority 2022, published 2026)
Entries after “also recorded” stand apart in the source; their conditions may differ.

Key:
[1] = test system: CFA-induced mechanical pain in mice; assay: CFA inflammatory pain, mechanical; assay type: in vivo, mouse; conditions: IP or PO 20 mg/kg
Procedure: The week prior to injection of CFA, adult mice (>10 weeks age, male or female) were first acclimated to the chambers used in pain assessments and then their left and right hind paws were subjected to thermal (heat) and mechanical (touch) pain measurements to obtain baseline data. Mechanical pain was assessed by placing mice on a wire grid and repeatably testing hind paws for their sensitivity to von Frey (VF) filaments of different stiffnesses with the mechanical withdrawal threshold for each mouse hind paw defined as the minimum gauge filament needed to elicit a reflex. Thermal pain was assessed by placing mice on a glass surface and subjecting their hind paws to an infrared heat source (Hargreaves device) that is connected to a timer to measure how long the animal takes to notice the heat and lift the paw. In these tests, both hind paws of mice were subjected to multiple measurements over a 2-3 hr period to (1) either narrow down the VF filament stiffness threshold to plot the touch pain or (2) to obtain six good thermal response measurements which are averaged to provide the data points for heat pain. […] A total of 12 mice were assessed in any one experiment. […]

[2] = test system: EphB2-His-Fc; assay: single-protein counter ELISA; conditions: 5 μM
Procedure: The 32 hits were then subjected to ELISA in which EphB1-Fc was first immobilized in 96 well Protein A plates, then soluble EB2-His was added with hit compound in triplicate, again at 5 μM. After 2 hr at RT to allow EB2-His binding to EphB1-Fc, wells were washed, incubated with nickel-activated horseradish peroxidase (HisProbe-HRP) to detect bound EB2-His protein, washed, and then incubated with ELISA Pico Chemiluminescent Substrate (both from Thermo-Fisher) before being read in a luminometer. A single-protein counter ELISA using the dual-tagged EphB2-His-Fc ectodomain protein was also run. […] For simplicity, we call this compound A20.

[3] = test system: EphB2, Cos1 cells; assay: ligand:receptor cluster (spot) formation in Cos1 cells, immunofluorescence; assay type: cell-based; conditions: A20 40 μM; listed as A20
Procedure: FIG. 14 depicts representative fluorescent images and quantification showing that Cos1 cells exposed to pre-clustered EB2-Fc binds to EphB2 forming spots on the cell (green) that also contain phosphotyrosine (red, arrows).
To assess if A20 would reduce the ability of EphrinB2 to stimulate activation of the EphB tyrosine kinase domain in live cells, Cos1 cells that express endogenous EphB2 were exposed to pre-clustered EB2-Fc ectodomains in the presence or absence of A20 for 30 min. […] Stimulated cells were fixed on the coverslip and subjected to immunofluorescence (IF) with anti-Fc antibodies to detect ligand protein bound to receptor, which leads to formation of circular Eph-Ephrin tetramers that then cluster into large obvious spots on the cell surface by lateral migration through the plasma membrane and also contain anti-phosphotyrosine signal indicating activation of the receptor's kinase domain.

[4] = test system: morphine withdrawal in mice; assay: naloxone-precipitated morphine withdrawal behaviors; assay type: in vivo, mouse; conditions: 30 mg/kg IP, 4×12 hr
Procedure: Eight month old male EphB1^+/+ WT mice EphB1^−/− KO mice from the Henkemeyer mouse colony were injected intraperitoneally (IP) with increasing morphine doses in normal saline every 12 h for 4 consecutive days (day 1:20 mg/kg, day 2:40 mg/kg, day 3:60 mg/kg, day 4:80 mg/kg) and on the fifth day in the morning they were injected with a final 100 mg/kg morphine dose which was staggered by one mouse every 30 minutes. Exactly 3 h after the last morphine injection, each mouse was weighed, and withdrawal was precipitated using naloxone hydrochloride that was subcutaneously injected at 1 mg/kg. Withdrawal signs were then monitored by an examiner who was blinded to animal genotypes for 30 min after naloxone administration to identify the number of jumps, wet dog shakes, and diarrhea events observed in the 30 min period, and % change in weight from before naloxone administration to 30 min post withdrawal. For tremor and ptosis, the presence of tremor and/or a drooping upper eyelid is monitored at the beginning of each 5 min interval during the 30 min monitoring period.
WT CD1 mice was used in one experiment and WT C57BL/6 mice was used in the other. All mice were 4-5-month-old males. In both cases, 30 mg/kg A20 free base dissolved in 6% DMSO/94% sunflower seed oil was administered in 4×12 hr IP dosings to mice that were at an entering dose 6 of a 9×12 hr IP schedule of escalating morphine (2×20, 2×40, 2×60, 2×80, and 1×100 mg/kg). Naloxone was given exactly 3 hr after the last A20/morphine dose and withdrawal behaviors were monitored for 30 min. Both groups of mice were scored for jumping (FIG. 70A) and the C57BL/6 mice were additionally scored at 5 min intervals for diarrhea, tremor, and ptosis (FIG. 70B). […] In summary, A20 tetramerization inhibitor compounds serve to help reduce the adverse effects of opioid use and abuse, and could possibly be used to help wean people off of terribly addictive narcotic drugs.

Oc1c(Br)cc(CN2CCOCC2)c2cccnc12 [Compound 5, 7-bromo-5-(morpholinomethyl)quinolin-8-ol]
mechanical pain [1]: no increased sensitivity to the VF filaments on average
mechanical pain ratio ([1]; vehicle 2-3): 1
counter ELISA signal [2]: had no effect on signal in the single-protein ELISA
ligand:receptor clusters on cell [3]: significantly reduced the ability of pre-clustered EB2-Fc to bind/cluster the EphB2 receptor to spots on the cell; also recorded: reduced the number of ligand: receptor clusters per cell
diarrhea and ptosis [4]: did not show signs of diarrhea or ptosis
jumps [4]: significantly fewer jumps
tremor reduction [4]: 50%
